Paper PMC3912015, “Synthetic Multivalent Antifungal Peptides Effective against Fungi” (PLoS ONE, 2014)
In brackets after ≈: the same amount, converted by molar mass. Read-outs that look alike come from different tables or passages of the source.

What was measured:
C. albicans ATCC10231 = assay: microbe, parasite or virus in culture; format: cell-based; conditions: Candida albicans
Protocol: (§1) The yeast strains were cultivated and suspended in Sabouraud’s Dextrose (SD) broth diluted to one sixth at a starting OD600 = ∼0.08 in a flat-bottomed microtitre plate. A serial dilution of peptide in the same broth was mixed with the inoculum to give a final peptide concentration of 0.4–22 µM. The antifungal activity was assessed by monitoring the OD600 in cycles of 30 minutes and an orbital shaking at 100 rpm using an Infinite M200 microplate reader (Tecan Group Ltd., Switzerland) for 24/48 h at 37°C. Cultures without peptides were used as positive controls and broth alone or with 22 µM peptide served as negative controls. The minimum concentration required for complete inhibition was assessed by both visible observations as well as by measuring the OD600 and taken as the MIC. Each experiment was repeated in triplicates. For studying the effects of metal ions, SD broth was adjusted with appropriate concentrations of salts to yield a final concentration of 100 and 135 mM for NaCl and KCl and 0.5–2 mM for CaCl2 and MgCl2. MIC determinations were carried out as described above. C. albicans ATCC10231 cells and salts in broth were taken as a positive control. Salts alone (NaCl, KCl, and CaCl2 and MgCl2) in broth or with 22 µM peptide served as a negative control. The effect of 5% human serum on the activities of B4010 against two C. albicans clinical isolates was determined. The human male serum was centrifuged at 13,000 rpm for 10 mins in order to remove the lipids and the supernatant was collected. The MIC values against clinical isolates of C. albicans 2672R and C. albicans 1976R were determined both in standard medium (SD broth) as well as in standard medium containing 5% serum supernatant as before.

C. albicans ATCC2091 = assay: microbe, parasite or virus in culture; format: cell-based; conditions: Candida albicans
Protocol: as §1

C. albicans ATCC24433 = assay: microbe, parasite or virus in culture; format: cell-based; conditions: Candida albicans
Protocol: as §1

C. albicans DF1976R = assay: microbe, parasite or virus in culture; format: cell-based; conditions: Candida albicans
Protocol: as §1

C. albicans DF2672R [1] = assay: microbe, parasite or virus in culture; format: cell-based; conditions: Candida albicans
Protocol: as §1

[2] = tested on: clinical isolates of C. albicans 2672R and C. albicans 1976R; assay: MIC against two clinical isolates, with or without 5% human serum; format: cell-based; conditions: Candida albicans; standard medium without serum
Protocol: as §1

C. albicans DF2672R [3] = assay: Time-kill kinetics assay; format: cell-based
Protocol: (§2) The time-kill kinetics of B4010 was determined against two strains of C. albicans (ATCC 10231 and DF2672R). The cultures were grown overnight in SD broth and the cell concentration was adjusted to 10^5–10^6 CFU/mL with phosphate buffer. The peptide or antifungals were added to the individual cultures. […] The test solution was incubated at 37°C with constant shaking. 100 µL of the suspension was withdrawn at predetermined time points, serially diluted (10^2 or 10^3 fold) and poured into the SDA plate. The plate was incubated for 48 h at 37°C for colony counting. The data were expressed in terms of % fungal viability relative to the positive control.

rabbit red blood cells = assay: Haemolytic assay; format: cell-based; conditions: 4% rabbit erythrocytes, 1 h
Protocol: Haemolytic activity of peptides and antifungal drugs were determined against rabbit red blood cells. Briefly, serial dilution of peptides/antifungals in PBS was mixed with rRBC (final concentration 4% v/v), incubated at 37°C for 1 h and centrifuged at 3000 rpm for 10 minutes. The release of hemoglobin in the supernatant was monitored by measuring the hemoglobin absorbance at 576 nm. The readings from cell suspension in PBS (without any additives) or 1% Triton-X100 were used as 0% or 100% haemolysis.

[4] = tested on: human conjunctival epithelial cells (IOBA-NHC); assay: cells; format: cell-based; conditions: Homo sapiens, Epithelial cell, 24 h, 24 h exposure; read-out: EC50 (effective concentration required to kill 50% of human conjunctival epithelial cells)
Protocol: Immortalized normal human conjunctival epithelial cells (IOBANHC) were a gift from Yolanda Diebold at the University of Valladolid, Spain [31]. IOBA-NHC cells were cultured under standard conditions (humidified atmosphere of 5% CO2 at 37°C) in DMEM/F12 supplemented with 1 µg/ml bovine pancreas insulin, 2 ng/ml mouse epidermal growth factor, 0.1 µg/ml cholera toxin, 5 µg/ml hydrocortisone, 10% fetal bovine serum (FBS), 50 UI/ml penicillin, and 50 UI/ml streptomycin. Cells from passages 50–80 were used in all experiments. Every day, normal culture development was observed by phase-contrast microscopy. Cells were removed by gentle trypsin incubation at confluence and counted. They were seeded into 96 well culture plates (Corning, Schiphol-Rijk, The Netherlands) for microtitration analysis of flow cytotoxicity assay (∼10,000 cells/well). Cultures were kept at 37°C for 24 h. Subconfluent cells (culture surface covering nearly 70%) were then exposed to various peptide concentrations (0.22–225 µM). Cytotoxicity was measured periodically using MultiTox-Fluor Multiplex assay kit (Promega, WI, USA) by measuring the AFC fluorescence (λex = 485 and λem = 520 nm). We report the cell viability after 24 h incubation of the cells with the peptides since there was no detectable toxicity even after 8 h of incubation.

[5] = format: biochemical
Protocol: Small unilamellar vesicles (SUVs) were prepared using PC/PE/PI or PS lipids (5∶2.5∶2.5) containing 15 wt% ergosterol or PC/Cholesterol (10∶1). For the preparation of PC/PE/PI or PS/Erg SUV, the lipids were dissolved in chloroform/methanol (2∶1, v/v) in a glass tube. Ergosterol was dissolved in same solvent and added to lipid mixture to make final ergosterol content of 15 wt%. The Lipid-ergosterol mixture was dried using nitrogen gas to form lipid layer. The film was hydrated in a buffer containing 20 mM PBS (pH 7), vortexed and sonicated. Each cycle of sonication (5 sec, 40°C) was followed by freezing in liquid nitrogen and thawing on a water bath kept at 37°C. The procedure was repeated 5–6 times until an optically clear dispersion appeared. The SUV was divided into two parts. To the first part 50 mM calcein was added and incubated for 1 h. The excess calcein was removed by injecting 100 µL of the calcien-loaded SUV’s into a Ultrahydrogel™ 250 (7.8 mm × 300 mm) column equilibrated with 20 mM PBS (pH 7.0) and eluted isochratically at a flow rate of 1 mL/min for 1.5 column volumes. The calcein-loaded liposomes were mixed with calcein-free liposome (1∶1) to adjust final liposome concentration. Peptide concentration was added to obtain 1∶30 or 1∶15 peptide:liposome ratio. Changes in the fluorescence signal after addition of peptide or Triton X-100 was measured on a PTI spectrofluorometer, using an excitation wavelength of 480 nm and emission wavelength of 512 nm. The Percentage calcein released at each time point was calculated using the equation, [drawing 1]
Where A0 is the observed fluorescence intensity upon addition of peptides, Amin is the average intensity at the baseline (before peptide addition), Amax is the average intensity at the saturation phase after adding 1% Triton X-100. Similar protocol was followed for the preparation of PC/Cholesterol SUVs.

[6] = Isothermal titration calorimetry; format: binding; conditions: PC SUVs, 15% ergosterol, 25°C
Protocol: ITC experiments were performed using a Microcal VP-ITC Calorimeter (Microcal, Northampton, MA, USA). SUVs, B4010, and polyene antifungals were dissolved in 10 mM HEPES buffered saline at pH 7.2. […] A total of 40 injections were performed and the heat of reaction produced by each injection was determined by integration of heat flow traces. In a separate experiment, the heat of dilution was determined by titrating SUVs into the buffer solution (without peptide). The heat of dilution was subtracted from the heat changes determined in the peptide/antifungal-liposome experiments.

F. solani ATCC36031 = assay: microbe, parasite or virus in culture; format: cell-based; conditions: Fusarium solani; F. solani ATCC36031
F. solani DM3782 = assay: microbe, parasite or virus in culture; format: cell-based; conditions: Fusarium solani; F. solani DM3782
F. solani DF1500 = assay: microbe, parasite or virus in culture; format: cell-based; conditions: Fusarium solani; F. solani DF1500
C. albicans ATCC 10231 = assay: Time-kill kinetics assay; format: cell-based; conditions: 16× MIC
Protocol: as §2

[7] = ATCC10231, Table 3, read-out: MIC in µM against Ca 10231
[8] = ATCC2091, Table 3, read-out: MIC in µM against Ca 2091
[9] = ATCC24433, Table 3, read-out: MIC in µM against Ca 24433
[10] = DF1976R, Table 3, read-out: MIC in µM against Ca DF1976R
[11] = DF2672R, Table 3, read-out: MIC in µM against Ca 2672R

Structure (SMILES): C[C@@H]1[C@H](O)[C@@H](C)/C=C/C=C/C=C/C=C/C=C/C=C/C=C/[C@H](O[C@@H]2O[C@H](C)[C@@H](O)[C@H](N)[C@@H]2O)C[C@@H]2O[C@](O)(C[C@@H](O)C[C@@H](O)[C@H](O)CC[C@@H](O)C[C@@H](O)CC(=O)O[C@H]1C)C[C@H](O)[C@H]2C(=O)O [Amphotericin B, reference compound]
- MIC (C. albicans ATCC10231; [7]): 1.35 µM (≈ 1.25 µg/mL)
- MIC (C. albicans ATCC2091; [8]): < 0.4 µM
- MIC (C. albicans ATCC24433; [9]): 1.35 µM (≈ 1.25 µg/mL)
- MIC (C. albicans DF1976R; [10]): 1.35 µM (≈ 1.25 µg/mL)
- MIC (C. albicans DF2672R [1]; [11]): 1.35 µM (≈ 1.25 µg/mL)
- MIC [2]: 1.4 µM (≈ 1.29 µg/mL)
- time to maximal effect (C. albicans DF2672R [3]; 16× MIC): less than 8 h
- HC50 (rabbit red blood cells): 59.4 ± 7.8 µM
- EC50 [4]: 134 ± 16 µM
- % Calcein released from PC/PE/PS/Erg [5]: 0%
- affinity for membrane bound ergosterol (ITC) [6]: strong affinity

Structure (SMILES): C[C@@H]1C/C=C/C=C/C=C/C=C/[C@H](O[C@@H]2O[C@H](C)[C@@H](O)[C@H](N)[C@@H]2O)C[C@@H]2O[C@](O)(C[C@@H](O)C[C@H]3O[C@@H]3/C=C/C(=O)O1)C[C@H](O)[C@H]2C(=O)O [Natamycin, reference compound]
- MIC (C. albicans ATCC10231; [7]): 15 µM (≈ 9.99 µg/mL)
- MIC (C. albicans ATCC10231; C. albicans ATCC10231, read-out: MIC): 15 µM (≈ 9.99 µg/mL)
- MIC (C. albicans ATCC2091; [8]): 7.5 µM (≈ 4.99 µg/mL)
- MIC (C. albicans ATCC2091; C. albicans ATCC2091, read-out: MIC): 7.5 µM (≈ 4.99 µg/mL)
- MIC (C. albicans ATCC24433; [9]): 15 µM (≈ 9.99 µg/mL)
- MIC (C. albicans ATCC24433; C. albicans ATCC24433, read-out: MIC): 15 µM (≈ 9.99 µg/mL)
- MIC (C. albicans DF1976R; [10]): 15 µM (≈ 9.99 µg/mL)
- MIC (C. albicans DF1976R; C. albicans DF1976R, read-out: MIC): 15 µM (≈ 9.99 µg/mL)
- MIC (C. albicans DF2672R [1]; [11]): 15 µM (≈ 9.99 µg/mL)
- MIC (C. albicans DF2672R [1]; C. albicans DF2672R, read-out: MIC): 15 µM (≈ 9.99 µg/mL)
- MIC (F. solani ATCC36031): 4.7 µM (≈ 3.13 µg/mL)
- MIC (F. solani DM3782): 2.4 µM (≈ 1.6 µg/mL)
- MIC (F. solani DF1500): 2.4 µM (≈ 1.6 µg/mL)
- MIC [2]: 15 µM (≈ 9.99 µg/mL)
- time required to achieve similar endpoints (4 log reduction) (C. albicans ATCC 10231): 24 h
- fungicidal action (C. albicans DF2672R [3]; 2× MIC, 24 h exposure): no fungicidal action
- HC50 (rabbit red blood cells): 139.6 ± 0.18 µM
- EC50 [4]: 212 ± 20.5 µM
- % Calcein released from PC/PE/PS/Erg [5]: 0%
